According to patent US11446265B2, “Reagents, compositions and methods for improving viability and function of cells, tissues and organs” (TARGA BIOMEDICAL, priority 2016, dated 2022):

Legend:
[1] = test system: H9c2 cardiomyoblasts; experiment: H9c2 viability after oxidative challenge, direct treatment with Celastrol combinations; assay type: cell-based, rat; details: 1-hour treatment combined with Celastrol; 1 mM H2O2 for 1 hour
[2] = test system: human mesenchymal stem cells (hMSC); experiment: mRNA expression in hMSC by real-time PCR; assay type: cell-based; details: FIGS. 25A, 25B, 26A to 26D
Excerpt: FIG. 25A is a table representing mRNA expression of selected genes measured by real-time PCR in human mesenchymal stem cells (hMSC) conditioned with Celastrol alone or in combination with selected adjunct agents. Results are expressed as fold change versus Vehicle-treated cells.
FIG. 25B is a table representing mRNA expression of selected genes measured by real-time PCR in human mesenchymal stem cells (hMSC) conditioned with selected Celastrol analogs alone or in combination with selected adjunct agents. Results are expressed as fold change versus Vehicle-treated cells.
Results are expressed as fold change versus Vehicle-treated cells. (Arbitrary angiogenic index: (VEGFa+FGF2+SDF1)*2) (A=Additive effect; S=Synergistic effect).
(§1) To test the second main condition, MSCs were treated with the candidate pharmaco-optimizers for 1 hour, followed by 3 hours washout period. Cell mRNA was extracted and expression of genes of interest was quantified by real time PCR. In additional MSC cultures, cells were treated for one hour, washed and cultured in low serum media for 24 hours. The media containing paracrine factors secreted by MSCs was then placed in contact with H9c2 cardiomyoblast cell line. H9c2 cells were then submitted to the hypoxia/serum starvation (<1% O2 in hypoxia chamber in low serum media for 48 hours) or oxidative stress (incubation in media for 1 hour spiked with 0-1 mM H2O2). Viability status of H9c2 cells was evaluated using the LIVE/DEAD assay as detailed above.

[3] = test system: human mesenchymal stem cells (hMSCs); experiment: VEGFa protein secreted by hMSC into culture medium; assay type: cell-based; details: 1-hour treatment combined with Celastrol; for VEGF protein after 48 hours in hypoxic condition: compared with normal culture; for VEGF protein after 48 hours in normal culture: normoxic
[4] = test system: H9c2 cardiomyoblasts; experiment: HO-1 and VEGFa mRNA in H9c2 cardiomyoblasts by real-time PCR; assay type: cell-based, rat; details: H9c2, 1-hour with Celastrol plus adjunct, 3 hour washout in normoxic or hypoxic condition
Excerpt: Results are expressed as fold change versus Vehicle-treated h9c2.

[5] = test system: H9c2 cardiomyoblasts; experiment: H9c2 viability under hypoxia/serum starvation (LIVE/DEAD); assay type: cell-based, rat; details: 1 uM
Method: For survival to hypoxic challenge and oxidative challenge, H9c2 cardiomyoblasts are submitted to the hypoxia/serum starvation (<1% O2 in hypoxia chamber in low serum media for 48 hours) or oxidative stress (incubation in media for 1 hour spiked with 0-1 mM H2O2). Viability status of H9c2 cells was evaluated using the LIVE/DEAD assay.

[6] = test system: H9c2 cardiomyoblasts; experiment: H9c2 viability under hypoxia/reoxygenation stress; assay type: cell-based, rat; details: 1 uM
Method: Next, the hypoxia/reoxygenation challenge is performed. Briefly, viability analysis was performed in rat H9c2 cardiomyoblasts as previously reported. For hypoxia/reoxygenation stress, cells were cultured in DMEM no glucose (Life Technologies), serum starved and placed in hypoxic conditions (<1% O2) for 18 h. At reoxygenation (normoxic conditions), cells were treated with Celastrol (10^−10 to 10^−6 mol/L, Cayman Chemical, Ann Arbor, Mich.), Celastrol analogs or vehicle (Dimethyl sulfoxide (DMSO), Sigma-Aldrich Canada, Oakville, ON; final concentration<1% v/v) in DMEM high glucose 1% FBS for 1 h, then reoxygenation was continued in DMEM high glucose for an additional 5 h.

[7] = test system: human mesenchymal stem cells (hMSC); experiment: Proteomic analysis (mass spectrometry) of conditioned media of treated hMSC; assay type: cell-based; details: one hour Celastrol 10^−6 M
Method: Conditioned cell media was collected, concentrated, proteins were separated by gel electrophoresis and analyzed by mass spectrometry and identified through database search.
Briefly, rat MSCs were treated in suspension with conditioning compounds for 60 minutes. Cells were then washed, labeled with fluorescent cell tracker and injected at t=0 in rat left ischemic hindlimb. Transplanted cells were imaged in vivo until day 9 using Optix™ MX3 Molecular Imaging System from ART (FIG. 2: A,B).

[8] = test system: rat mesenchymal stem cells (rMSC); experiment: rMSC viability after hypoxia/serum starvation (LIVE/DEAD); assay type: cell-based; details: 1-hour treatment, compound alone
Method: To test the first main condition, MSCs (either sourced from rat or humans) were treated with the candidate pharmaco-optimizers, washed and submitted to hypoxia/serum starvation (<1% O2 in hypoxia chamber in low serum media for 48-72 hours) or oxidative stress (incubation in media for 1 hour spiked with 0-2 mM H2O2), which mimic the major lethal stressors present in the ischemic transplant microenvironment. Viability status of cells are assessed using the LIVE/DEAD viability/cytotoxicity kit (Life Technologies™) and results are quantified by Operetta high content screening (HCS) apparatus equipped with Harmony automated analysis software (Perkin Elmer™).

[9] = test system: H9c2 cells; experiment: H9c2 viability in oxidative stress after pre-conditioning with media from treated rMSC (paracrine); assay type: cell-based, rat; details: 24-hour preconditioning with media from treated rMSC
Method: as §1

[10] = test system: rat mesenchymal stem cells (rMSC); experiment: mRNA expression in rMSC by real time PCR; assay type: cell-based
Method: as §1
Combination Treatments Tested—First Experiment: Celastrol (1 μM) or Gedunin (1 μM)+EGCG (1 μM, 10 μM) or TBHQ (1 μM, 5 μM)

[11] = rMSC, 1-hour treatment and 3-hour washout, combined with Celastrol
[12] = rMSC, 1-hour treatment and 3-hour washout, combined with Gedunin

Question: With O=C(C=Cc1ccccc1O)C=Cc1ccccc1O [Analog 2HBA, Bis(2-hydroxybenzylidene)acetone] as the compound, how does the “viability of H9c2 cells following oxidative challenge” value [1] read?
Answer: synergistic increase in viability

Question: And the “ranking as adjunct agent in combination with Celastrol or Celastrol analogs (gene expression)” value [2]?
Answer: among top adjunct agents

Question: And the “VEGF protein after 48 hours in hypoxic condition” value [3]?
Answer: even greater expression of VEGF protein

Question: What about the “VEGF protein after 48 hours in normal culture” value [3] of the same compound?
Answer: additive to synergistic increase in VEGF protein

Question: What about the “mRNA expression of HO-1” value [4] of the same compound?
Answer: increased mRNA expression

Question: What about the “mRNA expression of VEGFa” value [4] of the same compound?
Answer: increased mRNA expression

Question: Which results are given for Cc1c(O)c(O)cc2c1[C@H](C[N+](=O)[O-])C=C1[C@@]2(C)CC[C@@]2(C)[C@@H]3C[C@](C)(C(=O)O)CC[C@]3(C)CC[C@]12C [Analog 2]?
Answer: protection of H9c2 cardiomyoblasts from hypoxia [5]: effective; protection of H9c2 cardiomyoblasts from hypoxia/reoxygenation stress [6]: effective

Question: Which “ranking as adjunct agent in combination with Celastrol or Celastrol analogs (gene expression)” value [2] does the source give for CC(C)c1cc2c(c(O)c1O)[C@@]13CCCC(C)(C)[C@@H]1C[C@@H]2OC3=O [Carnosol] here?
Answer: among top adjunct agents

Question: With CC1=C(O)C(=O)C=C2C1=CC=C1[C@@]2(C)CC[C@@]2(C)[C@@H]3C[C@](C)(C(=O)O)CC[C@]3(C)CC[C@]12C [Celastrol] as the compound, how does the “increased level of CAT in the culture media” value [7] read?
Answer: 1,7 fold

Question: And the “increased level of GSH in the culture media” value [7]?
Answer: 2,8 fold

Question: What about the “increased level of HGF in the culture media” value [7] of the same compound?
Answer: 2,1 fold

Question: And the “increased level of HO1 in the culture media” value [7]?
Answer: 2,2 fold

Question: What about the “increased level of HSP70 in the culture media” value [7] of the same compound?
Answer: 1,8 fold

Question: And the “increased level of HSP90a in the culture media” value [7]?
Answer: 7,0 fold

Question: And the “increased level of HSP90b in the culture media” value [7]?
Answer: 2,2 fold

Question: What about the “increased level of MCSF in the culture media” value [7] of the same compound?
Answer: 24,4 fold

Question: What about the “increased level of TRX in the culture media” value [7] of the same compound?
Answer: 2,5 fold

Question: With COc1cc(/C=C/C(=O)CC(=O)/C=C/c2ccc(O)c(OC)c2)ccc1O [Curcumin] as the compound, how does the “ranking as adjunct agent in combination with Celastrol or Celastrol analogs (gene expression)” value [2] read?
Answer: among top adjunct agents

Question: And the “VEGF protein after 48 hours in hypoxic condition” value [3]?
Answer: even greater expression of VEGF protein

Question: And the “VEGF protein after 48 hours in normal culture” value [3]?
Answer: additive to synergistic increase in VEGF protein

Question: With Cc1c(O)c(O)cc2c1CC=C1[C@@]2(C)CC[C@@]2(C)[C@@H]3C[C@](C)(C(=O)O)CC[C@]3(C)CC[C@]12C [Dihydrocelastrol, dihydrocelastrol] as the compound, how does the “ranking as HSP90 inhibitor from expression of HSPs, growth factors, antioxidant proteins/enzymes, cytokines, matrix remodeling proteins” value [2] read?
Answer: best HSP90 inhibitors

Question: How did the “protection of rMSCs from 48-hour hypoxia induced cell death” value [8] turn out when CC(C)(C)c1cc(O)ccc1O [tBHQ, tert-Butylhydroquinone] was run?
Answer: not

Question: What about the “viability of H9c2 cells following oxidative challenge” value [1] of the same compound?
Answer: synergistic increase in viability

Question: And the “protection of H9c2 cells from oxidative stress induced death (paracrine)” value [9]?
Answer: protects

Question: And the “effect on Celastrol-induced Catalase (CAT) mRNA expression” value [10, 11]?
Answer: synergistic increase

Question: And the “effect on Celastrol-induced FGF2 mRNA expression” value [10, 11]?
Answer: synergistic increase

Question: And the “effect on Celastrol-induced Glutathione peroxidase (GPx) mRNA expression” value [10, 11]?
Answer: synergistic increase

Question: And the “effect on Celastrol-induced Glutathione reductase (GR) mRNA expression” value [10, 11]?
Answer: synergistic effect only at low dose

Question: And the “effect on Celastrol-induced HSP32 (HO-1) mRNA expression” value [10, 11]?
Answer: synergistic increase

Question: And the “effect on Celastrol-induced HSP70 mRNA expression” value [10, 11]?
Answer: synergistic increase

Question: What about the “effect on Celastrol-induced Superoxide dismutase 1 (SOD1) mRNA expression” value [10, 11] of the same compound?
Answer: no effect

Question: And the “effect on Celastrol-induced VEGFα mRNA expression” value [10, 11]?
Answer: decreases

Question: And the “effect on Celastrol-induced downregulation of TNFα mRNA” value [10, 11]?
Answer: synergistically accentuate

Question: What about the “FGF2 mRNA expression, combination with Gedunin” value [10, 12] of the same compound?
Answer: increased

Question: And the “effect on Gedunin-induced downregulation of TNFα mRNA” value [10, 12]?
Answer: synergistically accentuate

Question: And the “effect on Gedunin expression of VEGF” value ([10]; rMSC, combined with Gedunin)?
Answer: decreases

Question: What about the “effect on Celastrol-induced HSP70 expression in two other rMSC cell lines” value ([10]; two other rMSC cell lines, combined with Celastrol) of the same compound?
Answer: no effect

Question: And the “ranking as adjunct agent in combination with Celastrol or Celastrol analogs (gene expression)” value [2]?
Answer: among top adjunct agents

Question: What about the “VEGF protein after 48 hours in hypoxic condition” value [3] of the same compound?
Answer: even greater expression of VEGF protein

Question: What about the “VEGF protein after 48 hours in normal culture” value [3] of the same compound?
Answer: additive to synergistic increase in VEGF protein
